16 molecules from paper PMC9181188 (International Journal of Molecular Sciences, 2022) can be followed below.

Converted amounts (≈) assume the structure as drawn. Bounds are passed on as bounds.

One test relates to M. tuberculosis Spec. 210 (Multidrug-Resistant). Description: microbe, parasite or virus in culture. The test is classed as cell-based, Mycobacterium tuberculosis. Conditions: Mycobacterium tuberculosis, 336 h, read-out: MIC M. tuberculosis Spec. 210 (Multidrug-Resistant).
As to `CO[C@H]1/C=C/O[C@@]2(C)Oc3c(C)c(O)c4c(O)c(c(/C=N/N5CCN(C)CC5)c(O)c4c3C2=O)NC(=O)/C(C)=C\C=C\[C@H](C)[C@H](O)[C@@H](C)[C@@H](O)[C@@H](C)[C@H](OC(C)=O)[C@@H]1C` [Rifampicin (RMP), Rifampicin, reference compound], the MIC was 32 µg/mL (≈ 38.9 µM).

`NNC(=O)c1ccncc1` [Isoniazid (INH), Isoniazid, reference compound]: the MIC was found to be 16 µg/mL (≈ 117 µM).

`CCCCCCCCCCCCCCCCCC(=O)N1CCCC2CN(c3c(F)cc4c(=O)c(C(=O)O)cn(C5CC5)c4c3OC)CC21` (stereo not drawn) [Compound 16m, 1-Cyclopropyl-6-fluoro-8-methoxy-7-(1-octadecanoyl-octahydro-pyrrolo[3,4-b]pyridin-6-yl)-4-oxo-1,4-dihydro-quinoline-3-carboxylic acid]: the MIC was greater than 512 µg/mL.

For `CCCCCCCCCCCCCCCC(=O)N1CCC[C@H]2CN(c3c(F)cc4c(=O)c(C(=O)O)cn(C5CC5)c4c3OC)C[C@H]21` [Compound 9m, 1-Cyclopropyl-6-fluoro-7-(1-hexadecanoyl-octahydro-pyrrolo[3,4-b]pyridin-6-yl)-8-methox-4-oxo-1,4-dihydro-quinoline-3-carboxylic acid], the MIC is greater than 512 µg/mL.

As for `CCCCCCCC/C=C\CCCCCCCCCCCC(=O)N1CCCC2CN(c3c(F)cc4c(=O)c(C(=O)O)cn(C5CC5)c4c3OC)CC21` (stereo not drawn) [Compound 7m, 1-Cyclopropyl-7-{1-(Z)-docos-13-enoyl-octahydro-pyrrolo[3,4-b]pyridin-6-yl}-6-fluoro-8-methoxy-4-oxo-1,4-dihydro-quinoline-3-carboxylic acid], the MIC is greater than 512 µg/mL.

Consider `COc1c(N2CC3CCCN(C(=O)/C=C(\C)CCC=C(C)C)C3C2)c(F)cc2c(=O)c(C(=O)O)cn(C3CC3)c12` (stereo not drawn) [Compound 3m, 1-Cyclopropyl-7-{1-(2E)-(3,7-dimethyl-octa-2,6-dienoyl)-octahydro-pyrrolo[3,4-b]pyridin-6-yl}-6-fluoro-8-methoxy-4-oxo-1,4-dihydro-quinoline-3-carboxylic acid], for which the MIC came to 128 µg/mL (≈ 232 µM).

In the case of `[H]/N=C(/N)N[C@H]1[C@H](O)[C@@H](O)[C@H](O[C@@H]2O[C@@H](C)[C@](O)(C=O)[C@H]2O[C@@H]2O[C@@H](CO)[C@H](O)[C@@H](O)[C@@H]2NC)[C@@H](N/C(N)=N\[H])[C@@H]1O` [Streptomycin (SM), Streptomycin, reference compound], the MIC came out at 16 µg/mL (≈ 27.5 µM).

For the molecule `CCCCCCCC/C=C/CCCCCCCC(=O)N1CCCC2CN(c3c(F)cc4c(=O)c(C(=O)O)cn(C5CC5)c4c3OC)CC21` (stereo not drawn) [Compound 5m, 1-Cyclopropyl-6-fluoro-8-methoxy-7-{1-(E)-octadec-9-enoyl-octahydro-pyrrolo[3,4-b]pyridin-6-yl}-4-oxo-1,4-dihydro-quinoline-3-carboxylic acid], the MIC turned out to be 256 µg/mL (≈ 384 µM).

Regarding `CC/C=C\C/C=C\C/C=C\CCCCCCCC(=O)N1CCCC2CN(c3c(F)cc4c(=O)c(C(=O)O)cn(C5CC5)c4c3OC)CC21` (stereo not drawn) [Compound 6m, 1-Cyclopropyl-6-fluoro-8-methoxy-7-{1-(9Z,12Z,15Z)-octadeca-9,12,15-trienoyl-octahydro-pyrrolo[3,4-b]pyridin-6-yl}-4-oxo-1,4-dihydro-quinoline-3-carboxylic acid], the MIC was determined as 256 µg/mL (≈ 387 µM).

Turning to `CCCCCCCC/C=C\CCCCCCCC(=O)N1CCCC2CN(c3c(F)cc4c(=O)c(C(=O)O)cn(C5CC5)c4c3OC)CC21` (stereo not drawn) [Compound 4m, 1-Cyclopropyl-6-fluoro-8-methoxy-7-{1-(Z)-octadec-9-enoyl-octahydro-pyrrolo[3,4-b]pyridin-6-yl}-4-oxo-1,4-dihydro-quinoline-3-carboxylic acid], the MIC was greater than 512 µg/mL.

Turning to `CC/C=C\C/C=C\C/C=C\C/C=C\C/C=C\C/C=C\CCC(=O)N1CCCC2CN(c3c(F)cc4c(=O)c(C(=O)O)cn(C5CC5)c4c3OC)CC21` (stereo not drawn) [Compound 8m, 1-Cyclopropyl-7-{1-(4Z,7Z,10Z,13Z,16Z,19Z)-docosa-4,7,10,13,16,19-hexaenoyl-octahydro-pyrrolo[3,4-b]pyridin-6-yl}-6-fluoro-8-methoxy-4-oxo-1,4-dihydro-quinoline-3-carboxylic acid], the MIC amounted to 2 µg/mL (≈ 2.81 µM).

Take `C/C=C/C(=O)N1CCCC2CN(c3c(F)cc4c(=O)c(C(=O)O)cn(C5CC5)c4c3OC)CC21` (stereo not drawn) [Compound 1m, 7-{1-(E)-But-2-enoyl-octahydro-pyrrolo[3,4-b]pyridin-6-yl}-1-cyclopropyl-6-fluoro-8-methoxy-4-oxo-1,4-dihydro-quinoline-3-carboxylic acid]: the MIC was 64 µg/mL (≈ 136 µM).

Take `CCCCC/C=C\C/C=C\C/C=C\C/C=C\CCCC(=O)N1CCCC2CN(c3c(F)cc4c(=O)c(C(=O)O)cn(C5CC5)c4c3OC)CC21` (stereo not drawn) [Compound 13m, 1-Cyclopropyl-6-fluoro-7-{1-(5Z,8Z,11Z,14Z)-icosa-5,8,11,14-tetraenoyl-octahydro-pyrrolo[3,4-b]pyridin-6-yl}-8-methoxy-4-oxo-1,4-dihydro-quinoline-3-carboxylic acid]: the MIC came out at 2 µg/mL (≈ 2.91 µM).

For the molecule `CC[C@@H](CO)NCCN[C@@H](CC)CO` [Ethambutol (EMB), Ethambutol, reference compound], the MIC is 32 µg/mL (≈ 157 µM).

In the case of `CCCCCCCC(=O)N1CCCC2CN(c3c(F)cc4c(=O)c(C(=O)O)cn(C5CC5)c4c3OC)CC21` (stereo not drawn) [Compound 15m, 1-Cyclopropyl-6-fluoro-8-methoxy-7-(1-octanoyl-octahydro-pyrrolo[3,4-b]pyridin-6-yl)-4-oxo-1,4-dihydro-quinoline-3-carboxylic acid], the MIC was determined as 128 µg/mL (≈ 243 µM).

As for `CCCCC/C=C\C/C=C\CCCCCCCC(=O)N1CCCC2CN(c3c(F)cc4c(=O)c(C(=O)O)cn(C5CC5)c4c3OC)CC21` (stereo not drawn) [Compound 11m, 1-Cyclopropyl-6-fluoro-8-methoxy-7-{1-(9Z,12Z)-octadeca-9,12-dienoyl-octahydropyrrolo-[3,4-b]pyridin-6-yl)-4-oxo-1,4-dihydro-quinoline-3-carboxylic acid], the MIC turned out to be 256 µg/mL (≈ 386 µM).

Still in this test, the particulars now being: multidrug-resistant Spec. 210, versus INH, RMP, SM, EMB.
Consider `CC/C=C\C/C=C\C/C=C\C/C=C\C/C=C\C/C=C\CCC(=O)N1CCCC2CN(c3c(F)cc4c(=O)c(C(=O)O)cn(C5CC5)c4c3OC)CC21` (stereo not drawn) [Compound 8m, 1-Cyclopropyl-7-{1-(4Z,7Z,10Z,13Z,16Z,19Z)-docosa-4,7,10,13,16,19-hexaenoyl-octahydro-pyrrolo[3,4-b]pyridin-6-yl}-6-fluoro-8-methoxy-4-oxo-1,4-dihydro-quinoline-3-carboxylic acid], for which the “fold higher activity than referential tuberculostatics” value is 8–16 fold.

`CCCCC/C=C\C/C=C\C/C=C\C/C=C\CCCC(=O)N1CCCC2CN(c3c(F)cc4c(=O)c(C(=O)O)cn(C5CC5)c4c3OC)CC21` (stereo not drawn) [Compound 13m, 1-Cyclopropyl-6-fluoro-7-{1-(5Z,8Z,11Z,14Z)-icosa-5,8,11,14-tetraenoyl-octahydro-pyrrolo[3,4-b]pyridin-6-yl}-8-methoxy-4-oxo-1,4-dihydro-quinoline-3-carboxylic acid]: the “fold higher activity than referential tuberculostatics” value is 8–16 fold.
